The values below are quoted from earlier work in US5122376A, “Calcitonin gene related peptide” (ISF Societa per Azioni, priority 1989, dated 1992).

For this series the following is noted: compared with sodium caprate.

For `CC1(C)[C@@H](O)CC[C@]2(C)[C@H]3C(=O)C=C4[C@@H]5C[C@@](C)(C(=O)[O-])CC[C@]5(C)CC[C@@]4(C)[C@]3(C)CC[C@@H]12.[Na+]` [sodium glycyrrhetinate], the “absorption-enhancing agent for insulin (nasal absorption)” value is given as “weaker than sodium caprate”.
